Target: T1, full-length human PKCι (Homo sapiens, UniProt P41743)
T1 construct: Recombinant, full-length human PKCι expressed in Sf21 insect cells is also commercially available; purchased; host or cells: Sf21 insect cells
T1 sequence (P41743 1-596): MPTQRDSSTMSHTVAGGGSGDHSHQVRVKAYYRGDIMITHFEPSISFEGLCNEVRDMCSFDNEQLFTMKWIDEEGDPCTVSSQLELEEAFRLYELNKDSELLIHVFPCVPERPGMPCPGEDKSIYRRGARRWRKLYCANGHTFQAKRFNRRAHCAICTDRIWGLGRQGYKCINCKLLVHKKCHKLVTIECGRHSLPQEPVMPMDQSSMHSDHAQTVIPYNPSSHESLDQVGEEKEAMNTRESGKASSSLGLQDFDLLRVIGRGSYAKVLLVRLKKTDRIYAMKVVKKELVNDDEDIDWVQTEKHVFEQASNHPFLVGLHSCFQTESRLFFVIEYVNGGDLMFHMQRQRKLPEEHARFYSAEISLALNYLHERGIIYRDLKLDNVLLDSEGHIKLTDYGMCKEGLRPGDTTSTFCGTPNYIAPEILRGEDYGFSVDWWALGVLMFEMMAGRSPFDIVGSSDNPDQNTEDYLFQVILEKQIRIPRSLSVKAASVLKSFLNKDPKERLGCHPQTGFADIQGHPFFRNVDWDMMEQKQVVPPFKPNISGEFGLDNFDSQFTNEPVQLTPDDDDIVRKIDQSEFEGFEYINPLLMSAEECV
Assay: PKCι IC50 IMAP assay, full-length PKCι at 150 μM ATP
Type: biochemical
Settings: read-out: IC50 in IMAP assay against full length PKCi at 150 μM ATP
Method in brief: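 Full-length hPKCι (Sf21) ~15 pM; 5FAM-peptide 100 nM; ATP 150 μM (5× KM^APP); tris pH7.5/MgCl2/EGTA/DTT/Triton, 4% DMSO; 60 min RT; IMAP stop, 2 h; FP 485/530 nm; IC50 from % inhibition curves.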

SMILES	IC50 [µM]
CCOC(=O)N1CCN(c2nc(-c3ccnc4[nH]c(C(F)(F)F)cc34)nc3cncc(C4CC4)c23)CC1 [Example 1224, 4-[5-Cyclopropyl-2-(2-trifluoromethyl-1H-pyrrolo[2,3-b]pyridin-4-yl)-pyrido[3,4-d]pyrimidin-4-yl]-piperazine-1-carboxylic acid ethyl ester]	10 to 40
FC(F)(F)c1cc2c(-c3nc(N4CCOCC4)c4c(C5CC5)cncc4n3)ccnc2[nH]1 [Example 1227, 5-Cyclopropyl-4-morpholin-4-yl-2-(2-trifluoromethyl-1H-pyrrolo[2,3-b]pyridin-4-yl)-pyrido[3,4-d]pyrimidine]	10 to 40
C[C@H]1CN(c2nc(-c3ccnc4[nH]c(C(F)(F)F)cc34)nc3cncc(C4CC4)c23)CCN1 [Example 1233, 5-Cyclopropyl-4-((S)-3-methyl-piperazin-1-yl)-2-(2-trifluoromethyl-1H-pyrrolo[2,3-b]pyridin-4-yl)-pyrido[3,4-d]pyrimidine]	< 0.1
FC(F)(F)c1cc2c(-c3nc(N4CCNC(C(F)(F)F)C4)c4c(C5CC5)cncc4n3)ccnc2[nH]1 (stereo not shown) [Example 1236, 5-Cyclopropyl-4-(3-trifluoromethyl-piperazin-1-yl)-2-(2-trifluoromethyl-1H-pyrrolo[2,3-b]pyridin-4-yl)-pyrido[3,4-d]pyrimidine]	1 to 10
FC(F)(F)c1cc2c(-c3nc(N4CCCCC4)c4c(C5CC5)cncc4n3)ccnc2[nH]1 [Example 1237, 5-Cyclopropyl-4-piperidin-1-yl-2-(2-trifluoromethyl-1H-pyrrolo[2,3-b]pyridin-4-yl)-pyrido[3,4-d]pyrimidine]	0.1 to 1
FC(F)(F)C1(c2cc3c(-c4nc(N5CCNCC5)c5c(C6CC6)cncc5n4)ccnc3[nH]2)CC1 [Example 1238, 5-Cyclopropyl-4-piperazin-1-yl-2-[2-(1-trifluoromethyl-cyclopropyl)-1H-pyrrolo[2,3-b]pyridin-4-yl]-pyrido[3,4-d]pyrimidine]	< 0.1
OC1CCN(c2nc(-c3ccnc4[nH]c(C(F)(F)F)cc34)nc3cncc(C4CC4)c23)CC1 [Example 1239, 1-[5-Cyclopropyl-2-(2-trifluoromethyl-1H-pyrrolo[2,3-b]pyridin-4-yl)-pyrido[3,4-d]pyrimidin-4-yl]-piperidin-4-ol]	< 0.1

Other lines, results leading:

IC50 [µM]	SMILES
< 0.1	Fc1cnc2[nH]ccc2c1-c1nc(N2CCNCC2)c2c(C3CC3)cncc2n1 [Example 1226, 5-Cyclopropyl-2-(5-fluoro-1H-pyrrolo[2,3-b]pyridin-4-yl)-4-piperazin-1-yl-pyrido[3,4-d]pyrimidine]
< 0.1	[2H]C([2H])([2H])c1cc2c(-c3nc(N4CCNCC4)c4c(C5CC5)cncc4n3)ccnc2[nH]1 [Example 1228, 5-Cyclopropyl-4-piperazin-1-yl-2-(2-triduteriomethyl-1H-pyrrolo[2,3-b]pyridin-4-yl)-pyrido[3,4-d]pyrimidine]
< 0.1	CC(C)(C)c1cc2c(-c3nc(N4CCNCC4)c4c(C5CC5)cncc4n3)c(Cl)cnc2[nH]1 [Example 1229, 2-(2-tert-Butyl-5-chloro-1H-pyrrolo[2,3-b]pyridin-4-yl)-5-cyclopropyl-4-piperazin-1-yl-pyrido[3,4-d]pyrimidine]
< 0.1	Fc1ccc(-c2cc3c(-c4nc(N5CCNCC5)c5c(C6CC6)cncc5n4)ccnc3[nH]2)cc1 [Example 1230, 5-Cyclopropyl-2-[2-(4-fluoro-phenyl)-1H-pyrrolo[2,3-b]pyridin-4-yl]-4-piperazin-1-yl-pyrido[3,4-d]pyrimidine]
< 0.1	CC(C)(C)c1cc2c(-c3nc(N4CCNCC4)c4c(C5CC5)cncc4n3)ccnc2[nH]1 [Example 1231, 2-(2-tert-Butyl-1H-pyrrolo[2,3-b]pyridin-4-yl)-5-cyclopropyl-4-piperazin-1-yl-pyrido[3,4-d]pyrimidine]
< 0.1	Fc1cnc2[nH]c(C(F)(F)F)cc2c1-c1nc(N2CCNCC2)c2c(C3CC3)cncc2n1 [Example 1232, 5-Cyclopropyl-2-(5-fluoro-2-trifluoromethyl-1H-pyrrolo[2,3-b]pyridin-4-yl)-4-piperazin-1-yl-pyrido[3,4-d]pyrimidine]

— patent US9914730B2, “Azaquinazoline inhibitors of Atypical protein Kinase C” (Ignyta, Inc., priority 2012, dated 2018)
